Reference: PubChem BioAssay AID1963861 (Molecular Pharmacology Branch, DTP, NCI, 2024)

Test system: 885724-159-R-J1-PDC KRAS PDC multicell spheroid viability
Assay: Anticancer human tumor 885724-159-R-J1-PDC patient-derived pancreatic adenocarcinoma cell line growth inhibition [KRAS2]
Details: for IC50: curve of first compound; for viability, T/C: stronger effect = lower value
Summary of the method: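 Combination screen of spheroid viability in tumor-cell co-cultures with endothelial (HUVEC) and mesenchymal stem cell stroma. Each agent was tested in half-log dilutions, topping at clinical Cmax or at 10 microM without a known Cmax.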
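Further: spheroids exposed to agents for 7 days before readout.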

With CC1OCC2(CCN(c3cnc(Sc4ccnc(N)c4Cl)c(N)n3)CC2)C1N (stereo not given) + COc1cc2nc(C)nc(NC(C)c3cc(N)cc(C(F)(F)F)c3)c2cc1OC1CCOC1 the IC50 (second compound 0.1 µM) was > 10 µM, the IC50 (second compound 0.316 µM) was > 10 µM and the IC50 (second compound 1 µM) was > 10 µM. For the same molecule, the IC50 (second compound 3.16 µM) was > 10 µM, the IC50 (second compound 10 µM) was < 0.0316 µM and the viability, T/C (second compound 0.1 µM, first compound 0.0316 µM) was 90%. For the same molecule, the viability, T/C (second compound 0.1 µM, first compound 0.1 µM) was 84.8%, the viability, T/C (second compound 0.1 µM, first compound 0.316 µM) was 76.7% and the viability, T/C (second compound 0.1 µM, first compound 1 µM) was 67.1%. It also gave a viability, T/C (second compound 0.1 µM, first compound 3.16 µM) of 62.1%, a viability, T/C (second compound 0.1 µM, first compound 10 µM) of 53.7% and a viability, T/C (second compound 0.316 µM, first compound 0.0316 µM) of 93.4%. The viability, T/C (second compound 0.316 µM, first compound 0.1 µM) was 82.7%, the viability, T/C (second compound 0.316 µM, first compound 0.316 µM) was 73.2% and the viability, T/C (second compound 0.316 µM, first compound 1 µM) was 67.6%. The viability, T/C (second compound 0.316 µM, first compound 3.16 µM) was 57.2%, the viability, T/C (second compound 0.316 µM, first compound 10 µM) was 54.7% and the viability, T/C (second compound 1 µM, first compound 0.0316 µM) was 83.4%. The viability, T/C (second compound 1 µM, first compound 0.1 µM) was 82.5%, the viability, T/C (second compound 1 µM, first compound 0.316 µM) was 70% and the viability, T/C (second compound 1 µM, first compound 1 µM) was 62.7%. The viability, T/C (second compound 1 µM, first compound 3.16 µM) was 57%, the viability, T/C (second compound 1 µM, first compound 10 µM) was 51.4% and the viability, T/C (second compound 3.16 µM, first compound 0.0316 µM) was 76.5%. The viability, T/C (second compound 3.16 µM, first compound 0.1 µM) was 73.1%, the viability, T/C (second compound 3.16 µM, first compound 0.316 µM) was 69.6% and the viability, T/C (second compound 3.16 µM, first compound 1 µM) was 59%. It also gave a viability, T/C (second compound 3.16 µM, first compound 3.16 µM) of 55.1%, a viability, T/C (second compound 3.16 µM, first compound 10 µM) of 51.6% and a viability, T/C (second compound 10 µM, first compound 0.0316 µM) of 22.7%. For the same molecule, the viability, T/C (second compound 10 µM, first compound 0.1 µM) was 21.7%, the viability, T/C (second compound 10 µM, first compound 0.316 µM) was 19.5% and the viability, T/C (second compound 10 µM, first compound 1 µM) was 13.1%. It also gave a viability, T/C (second compound 10 µM, first compound 3.16 µM) of 13.5% and a viability, T/C (second compound 10 µM, first compound 10 µM) of 5.33%.
